Calls of active or inactive are those of the source.
Key:
[1] = NIH-3T3 fibroblast cytotoxicity, dose response, cytotoxicity control, cell-based, fluorescence, Alamar Blue, secondary assay (AID 2327); type: functional;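 further: NIH-3T3 mouse fibroblasts cultured with fluconazole at 8 µg/mL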
[2] = viability loss in THP-1 monocytes – THP-1 cells, cytotoxicity control for Vif-APOBEC3G degradation inhibitor project, dose response (AID 1117359); type: functional; details: THP-1
[3] = target: Luciferin 4-monooxygenase (Photinus pyralis, UniProt P08659); assay: Counter Screen for Luciferase-based Assay Positives. [Related pubchem assays: 620, 618, 411 ]
HT-1080 = assay: HT1080 cell viability loss – fluorescence readout (AID 620); type: functional, cell-based; details: Homo sapiens
cells = type: functional
[4] = target: T1, Sentrin-specific protease 8 (Homo sapiens, UniProt Q96LD8); type: functional
T1 sequence (Q96LD8 whole entry): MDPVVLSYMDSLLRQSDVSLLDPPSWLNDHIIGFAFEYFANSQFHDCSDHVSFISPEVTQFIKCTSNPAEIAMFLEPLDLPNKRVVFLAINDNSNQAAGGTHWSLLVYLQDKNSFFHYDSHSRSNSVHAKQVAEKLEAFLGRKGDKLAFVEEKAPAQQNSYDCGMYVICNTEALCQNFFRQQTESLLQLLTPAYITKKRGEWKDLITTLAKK

[5] = target: T1, Sentrin-specific protease 8; type: functional; remark: listed apart in the source
[6] = target: T2, Mannose-6-phosphate isomerase (Homo sapiens, UniProt P34949); assay: MPI inhibition at elevated mannose 6-phosphate – biochemical, fluorescence intensity, high mannose 6-phosphate, primary screen (AID 1220)
T2 sequence (P34949 whole entry): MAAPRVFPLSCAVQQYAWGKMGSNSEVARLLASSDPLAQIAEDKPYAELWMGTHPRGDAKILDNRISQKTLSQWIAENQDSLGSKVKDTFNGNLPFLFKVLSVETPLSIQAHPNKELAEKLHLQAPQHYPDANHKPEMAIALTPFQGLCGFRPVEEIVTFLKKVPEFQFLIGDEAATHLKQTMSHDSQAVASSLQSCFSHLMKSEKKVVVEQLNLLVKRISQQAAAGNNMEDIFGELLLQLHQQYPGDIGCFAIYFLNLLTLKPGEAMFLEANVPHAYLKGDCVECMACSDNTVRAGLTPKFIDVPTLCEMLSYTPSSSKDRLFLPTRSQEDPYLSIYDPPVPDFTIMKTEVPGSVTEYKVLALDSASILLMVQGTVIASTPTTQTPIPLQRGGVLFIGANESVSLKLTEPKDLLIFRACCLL

[7] = fluconazole-exposed Candida albicans growth modulators – fluorescence, retest, confirmation (AID 2467); type: functional, cell-based
Bcl-2-related protein A1 = target: T3, Bcl-2-related protein A1 (Mus musculus, UniProt Q07440); type: functional;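 further: confirmatory dose–response counterscreen on Bfl-1, used to check hits from a UBC13 polyubiquitin inhibitor campaign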
T3 sequence (Q07440 whole entry): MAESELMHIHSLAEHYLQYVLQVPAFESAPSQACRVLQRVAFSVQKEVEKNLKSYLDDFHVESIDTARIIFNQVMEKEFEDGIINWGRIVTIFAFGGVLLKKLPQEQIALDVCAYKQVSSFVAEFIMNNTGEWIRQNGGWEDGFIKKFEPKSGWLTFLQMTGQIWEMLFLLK

[8] = target: T4, Ubiquitin-conjugating enzyme E2 N (Homo sapiens, UniProt P61088); type: functional
T4 sequence (P61088 whole entry): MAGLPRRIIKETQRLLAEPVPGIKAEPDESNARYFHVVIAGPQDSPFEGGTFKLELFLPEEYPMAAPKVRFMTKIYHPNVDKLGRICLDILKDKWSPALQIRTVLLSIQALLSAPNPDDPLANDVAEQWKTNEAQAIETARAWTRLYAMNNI

[9] = target: T4, Ubiquitin-conjugating enzyme E2 N; type: functional; remark: listed apart in the source
[10] = target: T5, Small ubiquitin-related modifier 1 (Homo sapiens, UniProt P63165); assay: SUMO1 protein interaction blockers, potency – biochemical, fluorescence polarization, uHTS hits, dose response (AID 624382); type: functional; details: read-out: IC50_Mean
[11] = target: T5, Small ubiquitin-related modifier 1; assay: SUMO1 protein-protein binding blockers, potency – biochemical, FRET, dose response (AID 624383); type: functional; details: read-out: IC50_Mean
[12] = target: T6, DNA repair and recombination protein RAD54-like (Homo sapiens, UniProt Q92698); assay: RAD54 Holliday junction migration blockers – biochemical, fluorescence, cherry-picked samples, dose series, confirmation (AID 651657); type: functional
T6 sequence (Q92698 whole entry): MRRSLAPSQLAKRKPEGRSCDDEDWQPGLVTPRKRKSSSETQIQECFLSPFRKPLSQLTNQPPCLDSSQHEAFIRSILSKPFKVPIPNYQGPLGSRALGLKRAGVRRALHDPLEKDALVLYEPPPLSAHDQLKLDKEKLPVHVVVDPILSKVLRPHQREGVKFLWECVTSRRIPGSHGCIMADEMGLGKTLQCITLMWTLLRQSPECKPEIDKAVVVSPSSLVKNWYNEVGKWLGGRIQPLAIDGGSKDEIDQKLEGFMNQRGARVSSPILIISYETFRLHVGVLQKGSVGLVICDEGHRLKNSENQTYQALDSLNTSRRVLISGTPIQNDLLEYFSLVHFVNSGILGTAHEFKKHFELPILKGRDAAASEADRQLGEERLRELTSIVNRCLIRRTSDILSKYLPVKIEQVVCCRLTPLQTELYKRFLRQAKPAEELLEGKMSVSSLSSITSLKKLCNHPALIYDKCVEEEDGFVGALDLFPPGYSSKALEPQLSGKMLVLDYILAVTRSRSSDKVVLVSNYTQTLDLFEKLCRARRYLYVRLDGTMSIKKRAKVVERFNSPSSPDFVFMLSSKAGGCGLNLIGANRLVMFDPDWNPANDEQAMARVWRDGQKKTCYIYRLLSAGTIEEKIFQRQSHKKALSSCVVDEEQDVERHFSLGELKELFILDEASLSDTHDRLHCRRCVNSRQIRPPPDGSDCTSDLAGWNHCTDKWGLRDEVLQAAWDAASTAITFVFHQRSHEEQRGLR

[13] = target: T7, Rac GTPase-activating protein 1 (Homo sapiens, UniProt Q9H0H5); assay: blockers of MgcRacGAP-driven Rac1 GTP hydrolysis – biochemical, ADP Hunter fluorescence, primary and confirmatory, confirmation (AID 624330); type: functional
T7 sequence (Q9H0H5 whole entry): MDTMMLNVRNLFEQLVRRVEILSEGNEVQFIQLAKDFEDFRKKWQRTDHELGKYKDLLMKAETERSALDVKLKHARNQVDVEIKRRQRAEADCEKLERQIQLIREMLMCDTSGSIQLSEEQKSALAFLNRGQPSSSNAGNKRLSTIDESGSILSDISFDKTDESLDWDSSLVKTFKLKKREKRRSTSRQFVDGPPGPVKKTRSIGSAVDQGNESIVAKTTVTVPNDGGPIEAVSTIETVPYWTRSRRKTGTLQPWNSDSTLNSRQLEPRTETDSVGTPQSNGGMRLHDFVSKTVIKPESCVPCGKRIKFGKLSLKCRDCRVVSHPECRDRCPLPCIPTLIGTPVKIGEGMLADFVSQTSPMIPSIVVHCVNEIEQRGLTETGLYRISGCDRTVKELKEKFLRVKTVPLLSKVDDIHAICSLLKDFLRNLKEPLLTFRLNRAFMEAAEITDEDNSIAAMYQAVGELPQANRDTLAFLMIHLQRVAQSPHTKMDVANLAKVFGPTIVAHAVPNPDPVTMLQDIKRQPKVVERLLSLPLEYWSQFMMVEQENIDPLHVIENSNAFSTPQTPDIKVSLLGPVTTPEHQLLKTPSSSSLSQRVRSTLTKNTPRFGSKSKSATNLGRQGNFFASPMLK

[14] = target: T8, Replicative DNA helicase DnaB (Mycobacterium tuberculosis, UniProt P9WMR3); assay: DnaB intein splicing inhibitors, dose response, biochemical, cell-free fluorescence (AID 449749); type: functional
T8 sequence (P9WMR3 whole entry): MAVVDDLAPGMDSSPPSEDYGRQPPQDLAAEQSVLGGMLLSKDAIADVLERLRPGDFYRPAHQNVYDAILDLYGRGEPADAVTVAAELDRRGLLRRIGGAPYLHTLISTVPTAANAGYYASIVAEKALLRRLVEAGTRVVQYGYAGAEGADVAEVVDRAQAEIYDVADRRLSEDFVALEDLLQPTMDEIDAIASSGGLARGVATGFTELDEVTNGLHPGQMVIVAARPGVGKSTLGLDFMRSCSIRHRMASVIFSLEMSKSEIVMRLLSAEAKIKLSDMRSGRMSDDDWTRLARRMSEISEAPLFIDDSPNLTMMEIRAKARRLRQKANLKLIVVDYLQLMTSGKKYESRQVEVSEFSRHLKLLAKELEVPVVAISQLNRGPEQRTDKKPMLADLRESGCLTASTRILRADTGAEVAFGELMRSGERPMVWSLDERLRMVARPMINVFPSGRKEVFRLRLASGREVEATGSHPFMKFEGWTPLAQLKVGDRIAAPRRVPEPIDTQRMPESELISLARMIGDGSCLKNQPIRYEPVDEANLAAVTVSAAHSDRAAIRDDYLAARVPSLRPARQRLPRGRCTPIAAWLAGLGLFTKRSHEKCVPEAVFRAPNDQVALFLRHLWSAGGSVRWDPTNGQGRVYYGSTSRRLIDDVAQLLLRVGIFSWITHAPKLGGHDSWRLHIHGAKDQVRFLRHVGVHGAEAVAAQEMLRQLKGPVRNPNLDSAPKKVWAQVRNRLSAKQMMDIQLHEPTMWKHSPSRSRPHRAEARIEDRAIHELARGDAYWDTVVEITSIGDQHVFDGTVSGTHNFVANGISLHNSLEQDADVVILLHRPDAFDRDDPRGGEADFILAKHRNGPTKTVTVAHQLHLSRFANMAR

Protein RecA = target: T9, Protein RecA (Mycobacterium tuberculosis, UniProt P9WHJ3); assay: Fluorescence Cell-Free Homogeneous Dose Retest to Identify Inhibitors of RecA-Intein Splicing Activity. [Related pubchem assays (depositor defined):AID2097, AID2223, AID489010, AID492950]; type: functional
T9 sequence (P9WHJ3 whole entry): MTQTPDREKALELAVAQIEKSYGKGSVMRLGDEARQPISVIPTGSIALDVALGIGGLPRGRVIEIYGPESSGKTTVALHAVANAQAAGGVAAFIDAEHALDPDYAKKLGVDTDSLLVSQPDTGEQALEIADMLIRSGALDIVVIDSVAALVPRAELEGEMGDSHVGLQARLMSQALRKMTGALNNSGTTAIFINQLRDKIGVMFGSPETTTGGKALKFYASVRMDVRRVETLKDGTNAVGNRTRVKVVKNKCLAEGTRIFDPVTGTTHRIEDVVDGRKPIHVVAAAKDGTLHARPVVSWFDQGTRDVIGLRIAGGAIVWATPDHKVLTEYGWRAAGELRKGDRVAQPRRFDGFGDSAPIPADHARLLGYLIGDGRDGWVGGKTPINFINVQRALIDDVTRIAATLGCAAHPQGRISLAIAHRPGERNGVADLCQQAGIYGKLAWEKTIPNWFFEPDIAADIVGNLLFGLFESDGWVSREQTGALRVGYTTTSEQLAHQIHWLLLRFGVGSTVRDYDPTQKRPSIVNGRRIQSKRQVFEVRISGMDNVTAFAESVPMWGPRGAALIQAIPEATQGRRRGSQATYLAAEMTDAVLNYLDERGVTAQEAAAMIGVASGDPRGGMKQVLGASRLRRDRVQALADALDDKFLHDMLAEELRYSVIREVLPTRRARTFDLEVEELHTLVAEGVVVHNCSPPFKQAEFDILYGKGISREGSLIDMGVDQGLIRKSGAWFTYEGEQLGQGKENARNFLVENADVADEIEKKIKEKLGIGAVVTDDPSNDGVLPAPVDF

Protein Tat = target: T10, Protein Tat (Human immunodeficiency virus type 1 group M subtype B (isolate HXB2)(HIV-1), UniProt P04608); type: functional;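 further: tat binding to TAR RNA read out by fluorescence polarization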
T10 sequence (P04608 whole entry): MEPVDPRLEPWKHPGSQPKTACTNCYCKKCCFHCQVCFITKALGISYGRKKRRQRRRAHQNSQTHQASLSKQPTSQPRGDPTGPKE

T5 sequence (P63165 whole entry): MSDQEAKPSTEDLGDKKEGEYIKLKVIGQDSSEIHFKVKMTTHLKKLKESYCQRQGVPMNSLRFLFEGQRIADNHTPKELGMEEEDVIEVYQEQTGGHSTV
Luciferin 4-monooxygenase, sequence (P08659 whole entry): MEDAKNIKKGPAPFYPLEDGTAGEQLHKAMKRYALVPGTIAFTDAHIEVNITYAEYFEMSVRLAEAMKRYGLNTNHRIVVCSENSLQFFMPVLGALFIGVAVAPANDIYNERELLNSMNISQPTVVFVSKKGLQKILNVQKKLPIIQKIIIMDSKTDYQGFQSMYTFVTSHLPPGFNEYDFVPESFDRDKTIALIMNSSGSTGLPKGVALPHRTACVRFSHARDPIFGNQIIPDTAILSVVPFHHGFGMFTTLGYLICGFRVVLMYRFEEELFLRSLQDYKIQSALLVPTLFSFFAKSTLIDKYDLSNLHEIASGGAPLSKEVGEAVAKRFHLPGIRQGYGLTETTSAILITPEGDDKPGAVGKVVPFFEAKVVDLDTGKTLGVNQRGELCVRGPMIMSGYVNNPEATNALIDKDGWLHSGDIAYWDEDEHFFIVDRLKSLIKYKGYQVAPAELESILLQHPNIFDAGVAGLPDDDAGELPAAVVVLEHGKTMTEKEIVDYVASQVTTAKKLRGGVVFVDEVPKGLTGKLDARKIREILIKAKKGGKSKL

SMILES: C=CCN(CC=C)S(=O)(=O)c1ccc(C(=O)Nc2nnc(COC)o2)cc1
- EC50 [1]: 63.3 µM (active)
- CC50 [2]: 15.4 µM (active)

SMILES: COc1ccc(C2=Nc3ccccc3OC2)cc1
- EC50 [3]: < 0.2 µM (active)
- EC50 (HT-1080): > 50 µM (not active)
- IC50 (cells): 3.76 µM (active)

SMILES: COC/C=C/C1=CC2=CC(=O)C(C)(OC(=O)c3cnc4ccccc4n3)C(=O)C2=CN1CCCOC(C)C (stereo not drawn)
- IC50 [4]: 19.9 µM (active)
- IC50 [5]: 8.09 µM (active)

SMILES: CCOC(=O)N1CCN(c2cc(NCCO)c([N+](=O)[O-])c3nonc23)CC1
- IC50 [6]: > 50 µM (not active)

SMILES: O=C(CNc1ccc2ccccc2c1)N/N=C/c1ccc(C(=O)O)cc1
- IC50 [6]: > 50 µM (not active)

SMILES: O=C(Nc1ccc(C2=NCCN2)cc1)c1ccc(C(=O)Nc2ccc(C3=NCCN3)cc2)c(Cl)c1
- EC50 [1]: > 160 µM (inactive)
- EC50 [7]: 0.157 µM (active)
- IC50 (Bcl-2-related protein A1): 9.71 µM (active)
- IC50 [8]: 3.32 µM (active)
- IC50 [9]: 1.7 µM (active)
- IC50 [10]: > 66.6 µM (inactive)
- IC50 [11]: 4.61 µM (active)
- AC50 [12]: 13.8 µM (active)
- IC50 [13]: 35.8 µM (active)

SMILES: O=C1NC(=O)C(Nc2ccccc2)C(=O)N1
- IC50 [4]: 22.5 µM (active)
- IC50 [5]: 28.5 µM (active)

SMILES: O=C1CC(c2ccccc2)=NN1c1ccc([N+](=O)[O-])cc1
- AC50 [14]: 5.46 µM (active)
- EC50 (Protein RecA): 4.05 µM (active)
- IC50 [4]: 33.2 µM (active)
- IC50 [5]: 52.3 µM (active)

SMILES: COc1cccc(C(=O)NCCC2=CCCCC2)c1
- EC50 [3]: < 0.2 µM (active)
- EC50 (HT-1080): > 50 µM (not active)

SMILES: CNC(=O)[C@@H]1C[C@H]1[C@@H](NC(=O)OCc1ccccc1)c1ccccc1
- IC50 (Protein Tat): > 100 µM (active)
- CC50 [2]: > 40 µM (active)

Reference: ChEMBL document CHEMBL1201862, “PubChem BioAssay data set” (2004)
